Assay results published in patent EP1311531B1, “STEROID DERIVED ANTIBIOTICS” (Brigham Young University, priority 2000, dated 2002).
≈ marks a conversion by molar mass, not a printed value. Like-named read-outs stand apart in the source and are kept apart here.

What was measured:
E. coli (ATCC 10798) [1] = assay: MIC and MBC measurement; format: cell-based, Escherichia coli
Procedure: (§1) General: Microorganisms. Reference strains were purchased from the American Type Culture Collection (Rockville, MD) or Bactrol disks from Difeo Laboratories (Detroit, MI). […] Bacterial strains were maintained on Mueller-Hinton agar plates, and Candida albicans was maintained on Sabouraud Dextrose agar plates.
(§2) Aliquots (20 mL) of the homogeneous solution were then poured in sterile plastic petri dishes (100 x 15 mm, Fisher Scientific). Solutions of compounds were made by dissolving the HCl salt of the respective compound into an appropriate amount of deionized and sterilized water followed by microfiltration.
(§3) Aliquots of 1 mL of the suspension were added to test tubes containing 1 mL TSB and incrementally varied concentrations of cholic acid derivatives and/or erythromycin or novobiocin. […] Additionally, an alliquot from each of the samples showing no measurable turbidity was subcultured on TSA plates (alliquots were diluted to provide fewer than 300 CFU). Colonies that grew on the subculture after overnight incubation were counted and the number of CFU/mL in the samples were calculated. The calculated values were compared to the number of CFU/mL in the original inoculum.

E. coli (ATCC 10798) [2] = assay: Sensitization to erythromycin or novobiocin (outer membrane permeabilization, FIC); format: cell-based, Escherichia coli; conditions: for concentration required to lower the MIC of erythromycin from 70 µg/mL to 1 µg/mL: Table 2; for MBC: Escherichia coli; for (a) Concentration required to lower the MIC of erythromycin from 70 to 1 µg/mL / (b) MBC with 1 µg/mL erythromycin / FIC^c (FIC values with erythromycin) / (d) Concentration required to lower the MIC of novobiocin from >500 to 1 µg/mL / FIC^c (FIC values with novobiocin): Table 9, Escherichia coli (ATCC 10798)
Procedure: (§4) FICs can be performed by checkerboard titrations of compounds in one dimension of a microtiter plate, and of antibiotics in the other dimension, for example. The FIC is calculated by looking at the impact of one antibiotic on the MIC of the other and vice versa. […] Preferably, an FIC of less than 0.5 is obtained for synergism. As used herein, FIC can be determined as follows: FIC = (MIC(compound in combination))/(MIC(compound alone)) + (MIC(antibiotic in combination))/(MIC(antibiotic alone)) [formula]
(§5) Aliquots of 1 mL of the suspension were added to test tubes containing 1 mL TSB and incrementally varied concentrations of cholic acid derivatives and/or erythromycin or novobiocin. In the sensitization experiments, erythromycin or novobiocin were added 15 minutes later than the cholic acid derivatives. The samples were subjected to stationary incubation at 37°C for 24 hours. Sample turbidity was determined by measuring absorption at 760 nm (HP 8453 UV-Visible Chemstation, Hewlett Packard). Additionally, an alliquot from each of the samples showing no measurable turbidity was subcultured on TSA plates (alliquots were diluted to provide fewer than 300 CFU). Colonies that grew on the subculture after overnight incubation were counted and the number of CFU/mL in the samples were calculated. The calculated values were compared to the number of CFU/mL in the original inoculum.
They were also tested for the ability to permeabilize the outer membrane of Gram-negative bacteria, causing sensitization to hydrophobic antibiotics that cannot cross the outer membrane. The permeabilization of the outer membrane was measured using erythromycin and novobiocin.

[3] = system: Pseudomonas aeruginosa ATCC 27853; assay: MIC and MBC measurement; format: cell-based
Procedure: as §1, §2, §3

[4] = system: Pseudomonas aeruginosa ATCC 27853; assay: Sensitization to erythromycin, novobiocin or rifampicin (permeabilization, FIC); format: cell-based; conditions: Table 7; P. aureginosa (ATCC 27853); with erythromycin
Procedure: as §4, §5
Concentrations of 0.5, 1.0 or 3.0 µg/mL of these antibiotics were used, and the concentrations of the cholic acid derivatives required to inhibit bacterial growth of Gram-negative strains were determined.

[5] = Escherichia coli, ATCC10798, Table 1, E. coli (ATCC 10798), read-out: MIC
[6] = E. coli (ATCC 10798), with erythromycin
[7] = ATCC27853, Table 6, P. aureginosa (ATCC 27853)
[8] = Escherichia coli, ATCC10798, Table 1, E. coli (ATCC 10798), read-out: MBC
[9] = Table 9, Escherichia coli (ATCC 10798)
[10] = ATCC10798, Table 2, E. coli (ATCC 10798), with erythromycin
[11] = ATCC10798, Table 9, Escherichia coli (ATCC 10798), read-out: MBC
[12] = ATCC10798, Table 9, Escherichia coli (ATCC 10798), read-out: MIC

SMILES | MIC (E. coli (ATCC 10798) [1]; [5]) | concentration required to lower the MIC of erythromycin from 70 µg/mL to 1 µg/mL (E. coli (ATCC 10798) [2]; [6]) | (a) Concentration required to lower the MIC of erythromycin from 70 to 1 µg/mL (E. coli (ATCC 10798) [2]) | (b) MBC with 1 µg/mL erythromycin (E. coli (ATCC 10798) [2]) | FIC^c (FIC values with erythromycin) (E. coli (ATCC 10798) [2]) | (d) Concentration required to lower the MIC of novobiocin from >500 to 1 µg/mL (E. coli (ATCC 10798) [2]) | FIC^c (FIC values with novobiocin) (E. coli (ATCC 10798) [2]) | MBC (E. coli (ATCC 10798) [1]; [11]) | MIC (E. coli (ATCC 10798) [1]; [12]) | also measured
C[C@H](CCCN(C)Cc1ccccc1)[C@H]1CC[C@H]2[C@@H]3[C@H](OCCCCN)C[C@@H]4C[C@H](OCCCCN)CC[C@]4(C)[C@H]3C[C@H](OCCCCN)[C@]12C [Compound 3] | 6 µg/mL (≈ 8.44 µM) | 1.5 µg/mL |  |  |  |  |  |  |  | MIC [3, 7]: 16 µg/mL (≈ 22.5 µM); concentration required to lower the MIC of erythromycin from 240 µg/mL to 5 µg/mL [4]: 6 µg/mL
C[C@H](CCCN(C)Cc1ccccc1)[C@H]1CC[C@H]2[C@@H]3[C@H](OCCN)C[C@@H]4C[C@@H](OCCN)CC[C@]4(C)[C@H]3C[C@H](OCCN)[C@]12C [Compound 8] | 46 µg/mL (≈ 73.4 µM) | 10 µg/mL |  |  |  |  |  |  |  | MIC [3, 7]: 50 µg/mL (≈ 79.7 µM); concentration required to lower the MIC of erythromycin from 240 µg/mL to 5 µg/mL [4]: 40 µg/mL
CCCCCCCCOCCC[C@@H](C)[C@H]1CC[C@H]2[C@@H]3[C@H](OCCCN)C[C@@H]4C[C@H](OCCCN)CC[C@]4(C)[C@H]3C[C@H](OCCCN)[C@]12C [Compound 9] | 3 µg/mL (≈ 4.42 µM) | 3 µg/mL | 3.0 µg/mL | 3.0 µg/mL | 1.0 |  |  |  |  | MBC (E. coli (ATCC 10798) [1]; [8]): 10 µg/mL (≈ 14.7 µM); MBC (E. coli (ATCC 10798) [1]; [9]): 10 µg/mL (≈ 14.7 µM); MIC (E. coli (ATCC 10798) [1]; [9]): 3.0 µg/mL (≈ 4.42 µM); MBC (E. coli (ATCC 10798) [2]; [10]): 3 µg/mL; MIC [3, 7]: 8 µg/mL (≈ 11.8 µM); concentration required to lower the MIC of erythromycin from 240 µg/mL to 5 µg/mL [4]: 5 µg/mL
CC(O)[C@H]1CC[C@H]2[C@@H]3[C@H](OCCCN)C[C@@H]4C[C@H](OCCCN)CC[C@]4(C)[C@H]3C[C@H](OCCCN)[C@]12C (stereo partly shown) [Compound 11] | 140 µg/mL (≈ 267 µM) | 40 µg/mL | 20 µg/mL | 180 µg/mL | 0.16 | 40 µg/mL | 0.29 |  |  | MBC (E. coli (ATCC 10798) [1]; [8]): > 160 µg/mL; MBC (E. coli (ATCC 10798) [1]; [9]): >160 µg/mL; MIC (E. coli (ATCC 10798) [1]; [9]): 140 µg/mL (≈ 267 µM); MBC (E. coli (ATCC 10798) [2]; [10]): > 160 µg/mL; MBC (E. coli (ATCC 10798) [2]; ATCC10798, Table 3, E. coli (ATCC 10798), with novobiocin): 140 µg/mL
C[C@H](CCCOCCC[C@@H](C)[C@H]1CC[C@H]2[C@@H]3[C@H](OCCCN)C[C@@H]4C[C@H](OCCCN)CC[C@]4(C)[C@H]3C[C@H](OCCCN)[C@]12C)[C@H]1CC[C@H]2[C@@H]3[C@H](OCCCN)C[C@@H]4C[C@H](OCCCN)CC[C@]4(C)[C@H]3C[C@H](OCCCN)[C@]12C [Compound 12] | 4 µg/mL (≈ 3.59 µM) | 1.5 µg/mL |  |  |  |  |  |  |  | MBC (E. coli (ATCC 10798) [1]; [8]): 4 µg/mL (≈ 3.59 µM); MBC (E. coli (ATCC 10798) [2]; [10]): 2.5 µg/mL
C[C@H](CO)[C@H]1CC[C@H]2[C@@H]3[C@H](OCCCN)C[C@@H]4C[C@H](OCCCN)CC[C@]4(C)[C@H]3C[C@H](OCCCN)[C@]12C [Compound 108] |  |  | 4.0 µg/mL | 140 µg/mL | 0.071 | 12 µg/mL | 0.17 | 140 µg/mL (≈ 260 µM) | 70 µg/mL (≈ 130 µM) | 
C[C@H](CCO)[C@H]1CC[C@H]2[C@@H]3[C@H](OCCCN)C[C@@H]4C[C@H](OCCCN)CC[C@]4(C)[C@H]3C[C@H](OCCCN)[C@]12C [Compound 109] |  |  | 4.0 µg/mL | 80 µg/mL | 0.071 | 15 µg/mL | 0.22 | 120 µg/mL (≈ 217 µM) | 70 µg/mL (≈ 127 µM) | 
COCCC[C@@H](C)[C@H]1CC[C@H]2[C@@H]3[C@H](OCCCN)C[C@@H]4C[C@H](OCCCN)CC[C@]4(C)[C@H]3C[C@H](OCCCN)[C@]12C [Compound 111] |  |  | 1.0 µg/mL | 20 µg/mL | 0.048 | 2.0 µg/mL | 0.069 | 33 µg/mL (≈ 56.9 µM) | 30 µg/mL (≈ 51.7 µM) | 
CCCCCOCCC[C@@H](C)[C@H]1CC[C@H]2[C@@H]3[C@H](OCCCN)C[C@@H]4C[C@H](OCCCN)CC[C@]4(C)[C@H]3C[C@H](OCCCN)[C@]12C [Compound 113] |  |  | 0.8 µg/mL | 2.0 µg/mL | 0.28 | 1.0 µg/mL | 0.27 | 5 µg/mL (≈ 7.86 µM) | 3 µg/mL (≈ 4.72 µM) | 
C[C@H](CCCOS(=O)(=O)O)[C@H]1CC[C@H]2[C@@H]3[C@H](OCCCN)C[C@@H]4C[C@H](OCCCN)CC[C@]4(C)[C@H]3C[C@H](OCCCN)[C@]12C [Compound 132] |  |  |  |  |  |  |  |  |  | MIC (E. coli (ATCC 10798) [1]; Escherichia coli, ATCC10798, E. coli (ATCC 10798), read-out: MIC): 60 µg/mL (≈ 92.9 µM); concentration required to lower the MIC of erythromycin to 1 µg/mL (E. coli (ATCC 10798) [2]; E. coli (ATCC 10798)): 4.0 µg/mL
CO[C@@H]1[C@@H](OC(N)=O)[C@@H](O)[C@H](Oc2ccc3c(O)c(NC(=O)c4ccc(O)c(CC=C(C)C)c4)c(=O)oc3c2C)OC1(C)C [novobiocin, reference compound] |  |  |  |  |  |  |  |  |  | MIC (E. coli (ATCC 10798) [1]; Escherichia coli, ATCC10798, antibiotic alone, E. coli (ATCC 10798), read-out: MIC): > 500 µg/mL; MIC ([3]; ATCC27853, antibiotic alone, P. aureginosa (ATCC 27853)): > 500 µg/mL
